# According to ChEMBL document CHEMBL3885881, “DrugMatrix”:
# Species on record: Rattus norvegicus
# Test: DrugMatrix - Regimen: Daily Repeat
# Assay type: toxicity, organism-based, Sprague-Dawley
# Parameters: regimen Daily Repeat, gender Male, age 6-8 weeks
# Details: in vivo, po, 0 mg/kg, route oral GAVAGE, dose level Control, vehicle .5 % CMC; for BASOPHIL / EOSINOPHIL / ERYTHROCYTE COUNT / HEMATOCRIT / HEMOGLOBIN / LEUKOCYTE COUNT / LYMPHOCYTE / MEAN CORPUSCULAR HEMOGLOBIN / MEAN CORPUSCULAR HEMOGLOBIN CONCENTRATION / MEAN CORPUSCULAR VOLUME / MONOCYTE / NEUTROPHIL / PLATELET COUNT: tissue Blood; for ALANINE AMINOTRANSFERASE / ALBUMIN / ALKALINE PHOSPHATASE / ASPARTATE AMINOTRANSFERASE / BLOOD UREA NITROGEN / CARBON DIOXIDE / CHLORIDE / CHOLESTEROL / CREATINE PHOSPHOKINASE / CREATININE / GLUCOSE / LACTATE DEHYDROGENASE / LIPASE / PHOSPHORUS / POTASSIUM / SODIUM / TOTAL BILIRUBIN / TOTAL PROTEIN / URIC ACID: tissue Plasma
smiles,measurement,setting,value
COc1ccc(C(=O)Nc2c(Cl)c[n+]([O-])cc2Cl)c2ccc(C(F)(F)F)nc12 [SCH-351591],BASOPHIL,"96 h, time 4 day",0.5%
same,EOSINOPHIL,"96 h, time 4 day",1.85%
same,ERYTHROCYTE COUNT,"96 h, time 4 day",6.99 x10E6/uL
same,HEMATOCRIT,"96 h, time 4 day",43.82%
same,HEMOGLOBIN,"96 h, time 4 day",13.87 G/DL
same,LEUKOCYTE COUNT,"96 h, time 4 day",12.01 x10E3/uL
same,LYMPHOCYTE,"96 h, time 4 day",82.07%
same,MEAN CORPUSCULAR HEMOGLOBIN,"96 h, time 4 day",19.8 pg
same,MEAN CORPUSCULAR HEMOGLOBIN CONCENTRATION,"96 h, time 4 day",31.63 G/DL
same,MEAN CORPUSCULAR VOLUME,"96 h, time 4 day",62.7 fL
same,MONOCYTE,"96 h, time 4 day",2.6%
same,NEUTROPHIL,"96 h, time 4 day",12.38%
same,PLATELET COUNT,"96 h, time 4 day",1155 x10E3/uL
same,ALANINE AMINOTRANSFERASE,"96 h, time 4 day",31.67 u/L
same,ALBUMIN,"96 h, time 4 day",4.12 G/DL
same,ALKALINE PHOSPHATASE,"96 h, time 4 day",396 u/L
same,ASPARTATE AMINOTRANSFERASE,"96 h, time 4 day",75.67 u/L
same,BLOOD UREA NITROGEN,"96 h, time 4 day",17.5 mg/dL
same,CARBON DIOXIDE,"96 h, time 4 day",28.83 mmol/L
same,CHLORIDE,"96 h, time 4 day",103.83 MEQ/L
same,CHOLESTEROL,"96 h, time 4 day",84.83 mg/dL
same,CREATINE PHOSPHOKINASE,"96 h, time 4 day",597.17 u/L
same,CREATININE,"96 h, time 4 day",0.3 mg/dL
same,GLUCOSE,"96 h, time 4 day",161.5 mg/dL
same,LACTATE DEHYDROGENASE,"96 h, time 4 day",138.67 u/L
same,LIPASE,"96 h, time 4 day",11.5 u/L
same,PHOSPHORUS,"96 h, time 4 day",11.58 mg/dL
same,POTASSIUM,"96 h, time 4 day",6.87 MEQ/L
same,SODIUM,"96 h, time 4 day",146.83 MEQ/L
same,TOTAL BILIRUBIN,"96 h, time 4 day",0.38 mg/dL
same,TOTAL PROTEIN,"96 h, time 4 day",6.33 G/DL
same,URIC ACID,"96 h, time 4 day",1.37 mg/dL
same,BASOPHIL,"[…], time 6 day",0.37%
same,EOSINOPHIL,"[…], time 6 day",0.38%
same,ERYTHROCYTE COUNT,"[…], time 6 day",6.89 x10E6/uL
same,HEMATOCRIT,"[…], time 6 day",47.38%
same,HEMOGLOBIN,"[…], time 6 day",14.8 G/DL
same,LEUKOCYTE COUNT,"[…], time 6 day",13.59 x10E3/uL
same,LYMPHOCYTE,"[…], time 6 day",80.27%
same,MEAN CORPUSCULAR HEMOGLOBIN,"[…], time 6 day",21.52 pg
same,MEAN CORPUSCULAR HEMOGLOBIN CONCENTRATION,"[…], time 6 day",31.22 G/DL
same,MEAN CORPUSCULAR VOLUME,"[…], time 6 day",68.83 fL
same,MONOCYTE,"[…], time 6 day",2.78%
same,NEUTROPHIL,"[…], time 6 day",15.65%
same,PLATELET COUNT,"[…], time 6 day",1330.17 x10E3/uL
same,BASOPHIL,"[…], time 14 day",0.38%
same,EOSINOPHIL,"[…], time 14 day",0.6%
same,ERYTHROCYTE COUNT,"[…], time 14 day",7.78 x10E6/uL
same,HEMATOCRIT,"[…], time 14 day",48.3%
same,HEMOGLOBIN,"[…], time 14 day",15.42 G/DL
same,LEUKOCYTE COUNT,"[…], time 14 day",13.55 x10E3/uL
same,LYMPHOCYTE,"[…], time 14 day",81.18%
same,MEAN CORPUSCULAR HEMOGLOBIN,"[…], time 14 day",19.8 pg
same,MEAN CORPUSCULAR HEMOGLOBIN CONCENTRATION,"[…], time 14 day",31.92 G/DL
same,MEAN CORPUSCULAR VOLUME,"[…], time 14 day",62.08 fL
same,MONOCYTE,"[…], time 14 day",1.72%
same,NEUTROPHIL,"[…], time 14 day",15.17%
same,PLATELET COUNT,"[…], time 14 day",1083.83 x10E3/uL
same,ALANINE AMINOTRANSFERASE,"[…], time 6 day",36 u/L
same,ALBUMIN,"[…], time 6 day",4.03 G/DL
same,ALKALINE PHOSPHATASE,"[…], time 6 day",354.17 u/L
same,ASPARTATE AMINOTRANSFERASE,"[…], time 6 day",76.5 u/L
same,BLOOD UREA NITROGEN,"[…], time 6 day",19.33 mg/dL
same,CARBON DIOXIDE,"[…], time 6 day",27.83 mmol/L
same,CHLORIDE,"[…], time 6 day",105.5 MEQ/L
same,CHOLESTEROL,"[…], time 6 day",68.83 mg/dL
same,CREATINE PHOSPHOKINASE,"[…], time 6 day",383.83 u/L
same,CREATININE,"[…], time 6 day",0.35 mg/dL
same,GLUCOSE,"[…], time 6 day",165.83 mg/dL
same,LACTATE DEHYDROGENASE,"[…], time 6 day",155.17 u/L
same,LIPASE,"[…], time 6 day",9.83 u/L
same,PHOSPHORUS,"[…], time 6 day",12.4 mg/dL
same,POTASSIUM,"[…], time 6 day",6.9 MEQ/L
same,SODIUM,"[…], time 6 day",147.33 MEQ/L
same,TOTAL BILIRUBIN,"[…], time 6 day",0.52 mg/dL
same,TOTAL PROTEIN,"[…], time 6 day",6.42 G/DL
same,URIC ACID,"[…], time 6 day",1.6 mg/dL
same,ALANINE AMINOTRANSFERASE,"[…], time 14 day",36.83 u/L
same,ALBUMIN,"[…], time 14 day",4.13 G/DL
same,ALKALINE PHOSPHATASE,"[…], time 14 day",328.17 u/L
same,ASPARTATE AMINOTRANSFERASE,"[…], time 14 day",74.83 u/L
same,BLOOD UREA NITROGEN,"[…], time 14 day",18.67 mg/dL
same,CARBON DIOXIDE,"[…], time 14 day",29.33 mmol/L
same,CHLORIDE,"[…], time 14 day",105.17 MEQ/L
same,CHOLESTEROL,"[…], time 14 day",72 mg/dL
same,CREATINE PHOSPHOKINASE,"[…], time 14 day",217.67 u/L
same,CREATININE,"[…], time 14 day",0.45 mg/dL
same,GLUCOSE,"[…], time 14 day",151.17 mg/dL
same,LACTATE DEHYDROGENASE,"[…], time 14 day",133.17 u/L
same,LIPASE,"[…], time 14 day",14.5 u/L
same,PHOSPHORUS,"[…], time 14 day",11.55 mg/dL
same,POTASSIUM,"[…], time 14 day",6.77 MEQ/L
same,SODIUM,"[…], time 14 day",149.33 MEQ/L
same,TOTAL BILIRUBIN,"[…], time 14 day",0.37 mg/dL
same,TOTAL PROTEIN,"[…], time 14 day",6.62 G/DL
same,URIC ACID,"[…], time 14 day",1.57 mg/dL
